Measured values taken from BindingDB's records for doi:10.7270/Q2QF8R9S (Vanderbilt Screening Center For Gpcrs, Ion Channels and …, 2010).

What follows are molecules tested against T1, Muscarinic acetylcholine receptor M1 (Rattus norvegicus, UniProt P08482) (assay: rat M1 PAM analog potency, SAR follow-up, cell-based, calcium mobilization, CHO-K1 (AID 2651)). Conditions: not given.
T1 sequence (P08482 whole entry): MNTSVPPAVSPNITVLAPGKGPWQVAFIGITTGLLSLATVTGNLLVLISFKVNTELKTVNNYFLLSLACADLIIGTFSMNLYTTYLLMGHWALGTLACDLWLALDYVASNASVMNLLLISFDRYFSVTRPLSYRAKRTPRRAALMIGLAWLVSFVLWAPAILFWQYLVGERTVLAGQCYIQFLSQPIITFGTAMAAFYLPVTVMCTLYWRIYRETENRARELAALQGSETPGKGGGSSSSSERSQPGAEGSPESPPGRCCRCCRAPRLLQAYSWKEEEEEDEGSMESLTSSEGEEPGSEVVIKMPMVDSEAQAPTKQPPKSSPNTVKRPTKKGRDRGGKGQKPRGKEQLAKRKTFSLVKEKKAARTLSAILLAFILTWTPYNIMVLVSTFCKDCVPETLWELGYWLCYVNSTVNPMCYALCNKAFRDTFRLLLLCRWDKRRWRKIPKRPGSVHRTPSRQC
`Cc1cc(NC(=O)CS(=O)(=O)c2cn(Cc3cccc(-c4cn[nH]c4)c3)c3ccccc23)no1` showed an EC50 of 2.19 µM.
`Cc1cc(NC(=O)CS(=O)(=O)c2cn(Cc3cccc(Cl)c3F)c3ccccc23)no1` was tested, and the EC50 was 5.1 µM.
Molecule `Cc1cc(NC(=O)CS(=O)(=O)c2cn(Cc3cccc(-c4cc[nH]n4)c3F)c3ccccc23)no1` has an EC50 of 4.4 µM.
`Cc1cc(NC(=O)CS(=O)(=O)c2cn(Cc3ccccc3Cl)c3ccccc23)no1` [2-[1-[(2-chlorophenyl)methyl]indol-3-yl]sulfonyl-N-(5-methyl-1,2-oxazol-3-yl)acetamide] gave an EC50 of 10 µM.
Molecule `Cc1cc(NC(=O)CS(=O)(=O)c2cn(Cc3cccc(Br)c3)c3cc(F)cc(F)c23)no1` [2-[1-[(3-bromophenyl)methyl]-4,6-bis(fluoranyl)indol-3-yl]sulfonyl-N-(5-methyl-1,2-oxazol-3-yl)ethanamide] has an EC50 of 5.37 µM.
`Cc1cc(NC(=O)CS(=O)(=O)c2cn(Cc3cccc(Br)c3)c3ccccc23)no1` [2-[[1-[(3-bromophenyl)methyl]-3-indolyl]sulfonyl]-N-(5-methyl-3-isoxazolyl)acetamide] showed an EC50 of 3.79 µM.
In the case of `Cc1cc(NC(=O)CS(=O)(=O)c2cn(Cc3cccc(F)c3)c3ccccc23)no1` [2-[[1-[(3-fluorophenyl)methyl]-3-indolyl]sulfonyl]-N-(5-methyl-3-isoxazolyl)acetamide], the EC50 is reported as 5.22 µM.
`Cc1cc(NC(=O)CS(=O)(=O)c2cn(Cc3cc(Br)ccc3F)c3ccccc23)no1` [2-[[1-[(5-bromo-2-fluorophenyl)methyl]-3-indolyl]sulfonyl]-N-(5-methyl-3-isoxazolyl)acetamide] was tested, and the EC50 was 1.38 µM.
For `Cc1cc(NC(=O)CS(=O)(=O)c2cn(Cc3cc(-c4cc[nH]n4)ccc3F)c3ccccc23)no1` [2-[[1-[[2-fluoro-5-(1H-pyrazol-5-yl)phenyl]methyl]-3-indolyl]sulfonyl]-N-(5-methyl-3-isoxazolyl)acetamide], the EC50 was 3.07 µM.
`Cc1cc(NC(=O)CS(=O)(=O)c2cn(Cc3cccc(Cl)c3)c3ccccc23)no1` [VU0366968-1] gave an EC50 of 5.82 µM.
With `COc1cccc(Cn2cc(S(=O)(=O)CC(=O)Nc3cc(C)on3)c3ccccc32)c1` [VU0366971-1] the EC50 was 6.54 µM.
Molecule `Cc1cc(NC(=O)CS(=O)(=O)c2cn(Cc3cccc(-c4ccn(C)n4)c3)c3ccccc23)no1` [VU0402606-1] has an EC50 of 3.21 µM.
`Cc1cc(NC(=O)CS(=O)(=O)c2cn(Cc3ccc(F)nc3)c3ccccc23)no1` [VU0404018] was tested, and the EC50 was 10 µM.
`Cc1cc(NC(=O)CS(=O)(=O)c2cn(Cc3cccc(-c4cn[nH]c4)c3)c3cc(F)cc(F)c23)no1` [VU0405645-1] was tested, and the EC50 was 1.85 µM.

Same assay, conditions: inactive by the depositor's call
Molecule `Cc1cc(NC(=O)CS(=O)(=O)c2cn(Cc3cccc(-c4ccc(Cl)nc4)c3)c3ccccc23)no1` has an EC50 of 30 µM.
